Reference: patent US4382888A, “Tryptophan derivative and process for production thereof” (Ajinomoto Company Incorporated, priority 1978, dated 1983)

Experiments:
[1] = target: chymotrypsin (Bos taurus, UniProt P00766); assay: inhibitory activity against chymotrypsin; assay type: biochemical
[2] = system: subtilis; assay: inhibitory activity against subtilis; assay type: biochemical
[3] = target: T1, trypsin (Bos taurus, UniProt P00760); assay: inhibitory activity against trypsin; assay type: biochemical
T1 sequence (P00760 24-246): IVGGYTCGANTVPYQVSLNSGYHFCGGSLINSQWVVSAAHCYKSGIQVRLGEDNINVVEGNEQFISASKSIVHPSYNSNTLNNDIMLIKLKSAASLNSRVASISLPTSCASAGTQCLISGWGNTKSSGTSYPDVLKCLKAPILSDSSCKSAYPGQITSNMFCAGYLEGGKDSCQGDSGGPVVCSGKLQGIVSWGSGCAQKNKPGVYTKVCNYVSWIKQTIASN

[4] = Solubility; assay type: physicochemical
[5] = system: metallo proteinase produced by Pseudomonas aeruginosa; assay: inhibitory activity against metallo proteinase of Pseudomonas aeruginosa (casein digestion); assay type: biochemical
Experimental: (§1) A mixture of 0.25 ml of sample solution in 0.05 M phosphate buffer at pH 7.5 and 0.25 ml of thermolysin solution (20 μg/ml in the same buffer was incubated for 10 minutes at 37° C. The mixture was added with 1.5 ml of 1.33% Hammarsten casein solution in 0.1M phosphate buffer (pH 7.0) and incubated for 10 minutes at 37° C. By the addition of 2 ml of 0.44 M trichloroacetic acid the reaction was stopped. After standing for 30 minutes at 37° C., the reaction mixture was filtered. To 1.0 ml of the filtrate 5 ml of 0.55 M Na2 CO3 and 1 ml of 2 times diluted Folin-Ciocaltean reagent were added. After standing for 60 minutes at 37° C., the absorbance (Is) was measured at 660 mμ. The blank value (Ib) was taken by carrying out the reaction using 0.25 ml of 0.05M phosphate buffer (pH 7.5) instead of thermolysin. […] Inhibition rate against enzyme activity is calculated by the following equation: [formula] Now, inhibitory activity against metallo proteinase produced by Pseudomonas aeruginosa can be measured in the same manner as above wherein amounts of enzyme used is established so as to have following value. A value of (Es-Eb) according to method for measuring inhibitory activity is 0.6 wherein cell length used for the measurement of absorbance is 1 cm.

[6] = target: T2, papain (Carica papaya, UniProt P00784); assay: inhibitory activity against papain; assay type: biochemical
T2 sequence (P00784 134-345): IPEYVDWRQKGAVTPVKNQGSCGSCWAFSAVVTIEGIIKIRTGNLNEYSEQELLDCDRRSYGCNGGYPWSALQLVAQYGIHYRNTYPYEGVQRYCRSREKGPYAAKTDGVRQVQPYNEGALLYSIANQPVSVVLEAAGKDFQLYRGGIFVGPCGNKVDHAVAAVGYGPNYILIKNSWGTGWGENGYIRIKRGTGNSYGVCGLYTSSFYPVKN

[7] = Stability in aqueous solution; assay type: physicochemical
[8] = target: pepsin (Sus scrofa, UniProt P00791); assay: inhibitory activity against pepsin; assay type: biochemical
[9] = target: thermolysin (Bacillus thermoproteolyticus, UniProt P00800); assay: inhibitory activity against thermolysin (casein digestion, Folin reagent); assay type: biochemical, genus Bacillus
Experimental: as §1

[10] = system: metallo proteinase produced by Aspergillus oryzae; assay: inhibitory activity against metallo proteinase of Aspergillus oryzae; assay type: biochemical
[11] = amount of compound in the assay

Chain of thermolysin (P00800 233-548): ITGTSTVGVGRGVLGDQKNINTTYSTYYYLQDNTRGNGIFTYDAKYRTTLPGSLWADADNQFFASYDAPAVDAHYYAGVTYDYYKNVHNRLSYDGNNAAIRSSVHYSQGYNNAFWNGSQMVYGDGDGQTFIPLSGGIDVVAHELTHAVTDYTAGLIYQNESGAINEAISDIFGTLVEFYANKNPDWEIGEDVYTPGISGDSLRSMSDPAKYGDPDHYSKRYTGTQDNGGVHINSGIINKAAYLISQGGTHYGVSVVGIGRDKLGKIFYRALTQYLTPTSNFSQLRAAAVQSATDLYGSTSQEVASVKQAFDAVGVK
Chain of pepsin (P00791 60-385): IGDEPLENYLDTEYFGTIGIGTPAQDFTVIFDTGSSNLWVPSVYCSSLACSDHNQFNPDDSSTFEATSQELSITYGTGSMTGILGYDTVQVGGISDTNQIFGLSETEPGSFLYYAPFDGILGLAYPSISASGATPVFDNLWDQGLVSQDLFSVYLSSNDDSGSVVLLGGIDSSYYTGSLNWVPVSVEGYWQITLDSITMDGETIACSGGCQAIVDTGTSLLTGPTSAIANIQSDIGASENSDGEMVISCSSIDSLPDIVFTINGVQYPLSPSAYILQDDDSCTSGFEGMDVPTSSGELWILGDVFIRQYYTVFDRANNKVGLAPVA

For `CC(C)C[C@H](NP(=O)(O)OC1O[C@@H](C)[C@@H](O)[C@@H](O)[C@H]1O)C(=O)N[C@@H](Cc1c[nH]c2ccccc12)C(=O)O` (stereo partly drawn) [novel tryptophan derivative, N-(6-deoxy-L-talosyloxy hydroxyphosphinyl)-L-leucyl-L-tryptophan], the “inhibiting activity (in words)” value [1] was “does not inhibit”, the “inhibiting activity (in words)” value [2] was “does not inhibit” and the “inhibiting activity (in words)” value [3] was “does not inhibit”. For the same compound, the Solubility ([4]; benzene) was “Insoluble”, the Solubility ([4]; chloroform) was “Insoluble” and the Solubility ([4]; ethanol) was “Soluble”. For the same compound, the Solubility ([4]; ether) was “Insoluble”, the Solubility ([4]; hexane) was “Insoluble” and the Solubility ([4]; methanol) was “Soluble”. For the same compound, the Solubility ([4]; water) was “Soluble”, the “inhibiting activity (in words)” value [5] was “strongly inhibits” and the “Amount necessary for inhibiting 50% of the enzyme activity” value [5, 11] was 4 µg. The “inhibiting activity (in words)” value [6] was “does not inhibit”, the Stability ([7]; acidic aqueous solution) was “Unstable” and the “Stability (remaining activity)” value ([7]; standing for 24 hours at pH 1) was “Activity is lost completely”. The Stability ([7]; weak acidic, neutral, or alkaline aqueous solution) was “Stable”, the “inhibiting activity (in words)” value [8] was “does not inhibit” and the “inhibiting activity (in words)” value [9] was “strongly inhibits”. The “Amount necessary for inhibiting 50% of the enzyme activity” value [9, 11] was 0.35 µg and the “inhibiting activity (in words)” value [10] was “inhibits”.
